Reference: patent US9045393B2, “Derivatives of 3.5-seco-4-norcholestane and use thereof” (TROPHOS, priority 2004, dated 2015)

Tests used:
rat motoneurons = experiment: in vitro model of trophic deprivation of rat motoneurons (survival, calcein fluorescence); type: cell-based; conditions: 3 days in basal medium, compared with medium supplemented with neurotrophic factors, ratio greater than 0 = positive effect
From the text: Useful reference may be made to the WO 0142784 Patent Application of the applicant on the cultivation of spinal cord motoneurons.
The spinal cord of rat E14 embryos is dissected and the ventral portion is dissociated by trituration after trypsination. The motoneurons are separated from the other spinal cells by a known method (Camu et al., 1993, Purification of spinal motoneurons from chicken and rat embryos by immunopanning. in “Immunoselection Strategies for Neural cell culture”, Neuroprotocols: A companion to Methods in Neurosciences 2, 191-199; Henderson et al., 1993. Neutrophins promote motor neuron survival and are present in embryonic limb bud. Nature 363 (6426): 266-70). The cells are centrifuged on a density gradient. Motoneurons are enriched in the fraction of large cells (the less dense cells). The cells of this fraction are incubated with an anti-p75 antibody, a surface antigen present on motoneurons. Secondary antibodies coupled with magnetic beads are added and the mixture of cells is passed through a column in a magnet (Arce et al., 1999). Only the motoneurons are retained: their purity is of the order of 90%.
The motoneurons are sown with low density in culture wells on a substrate of polyornithine-laminin in a neurobasal medium supplemented according to Raoul et al., 1999, Programmed cell death of embryonic motoneurons triggered through the Fas death receptor. J. Cell. Biol. 147(5): 1049-62. Negative controls (absence of trophic factors) and positive controls (in the presence of BDNF (Brain-Derived Neurotrophic Factor) at 1 ng/mL, GDNF (Glial-Derived Neurotrophic Factor) at 1 ng/mL, and CNTF (Ciliary Neurotrophic Factor) at 10 ng/mL, marketed by the US company PEPROTECH, Inc. and the Sigma-Aldrich company), are included in each series.
The compounds to be tested are added 60 minutes after sowing and the cultures are maintained at 37° C. under 5% CO2 for 3 days.
The motoneurons have a spontaneous tendency of dying in the absence of neurotrophic factors (Pettmann and Henderson, 1998, Neuronal cell death. Neuron 20(4): 633-47). After 3 days, survival is evaluated by measuring fluorescence after incubating the cells in the presence of calcein which becomes fluorescent in living cells.
After 3 days in culture at 37° C., under 5% CO2 and in saturating humidity, up to 50% of the initially sown motoneurons survive in the medium supplemented with neurotrophic factors, while less than 15% of the motoneurons survive in a basal medium alone.
The activity of the compounds to be tested was evaluated by their capability of preventing death of motoneurons when they are added to the neurobasal medium as compared with survival of motoneurons in a medium supplemented with neurotrophic factors.
This survival rate is expressed by a number, the ratio. If the ratio is greater than 0, the effect of the compounds is positive on the survival of the motoneurons.

[1] = tested on: motoneurons of the facial nucleus; experiment: axotomy of the facial nerve in newborn rats, count of motoneurons of the facial nucleus; type: in vivo, rat; conditions: axotomized newborn rats, treated orally, seven days after section
[2] = Toxicological study in mice; type: in vivo; conditions: intra-peritoneal route, 30 mg/kg/day, daily administration up to 14 days

In the case of “3,5-seco-4-nor-cholestan-5-one oxime-3-methyl alcohol [Compound 4]”, the “Ratio (survival rate of the motoneurons)” value (rat motoneurons; concentration 3 μM) is reported as 0.5 and the “increase of survival of the motoneurons of the facial nucleus” value (shortened to “increase”) ([1]; dose of 30 mg/kg) is reported as “up to 30%”.
With “3,5-seco-4-nor-cholestan-5-one-3-methyl ketone [Compound 13]” the “Ratio (survival rate of the motoneurons)” value (rat motoneurons; concentration 3 μM) was 0.7.
For `CNC(=O)CCC1(C)C(=NO)CCC2C1CCC1(C)C(C(C)CCCC(C)C)CCC21` (stereo not shown) [Compound 1, 3,5-seco-4-nor-cholestan-5-one oxime-3-methyl-amide], the “Ratio (survival rate of the motoneurons)” value (rat motoneurons; concentration 3 μM) was 0.4.
With `CC(C)CCCC(C)C1CCC2C3CCC(=O)C(C)(CCC(C)(C)O)C3CCC12C` (stereo not shown) [Compound 2, 3,5-seco-4-nor-cholestan-5-one-3-dimethyl alcohol] the “Ratio (survival rate of the motoneurons)” value (rat motoneurons; concentration 3 μM) was 0.5.
For `CC(C)CCCC(C)C1CCC2C3CCC(=NO)C(C)(CCC(C)(C)O)C3CCC12C` (stereo not shown) [Compound 3, 3,5-seco-4-nor-cholestan-5-one oxime-3-dimethyl alcohol], the “Ratio (survival rate of the motoneurons)” value (rat motoneurons; concentration 3 μM) was 0.7, the “increase” value ([1]; dose of 10 mg/kg) was “up to 25%” and the toxicity [2] was “did not show any significant toxicity”.
With `CNCCCC1(C)C(=NO)CCC2C1CCC1(C)C(C(C)CCCC(C)C)CCC21` (stereo not shown) [Compound 5, 3,5-seco-4-nor-cholestan-5-one oxime-3-methyl-amine] the “Ratio (survival rate of the motoneurons)” value (rat motoneurons; concentration 3 μM) was 0.3.
In the case of `CON=C1CC[C@H]2[C@@H]3CC[C@H]([C@H](C)CCCC(C)C)[C@@]3(C)CC[C@@H]2[C@@]1(C)CCCO` [Compound 6, 3,5-seco-4-nor-cholestan-5-one methyloxime-3-ol], the “Ratio (survival rate of the motoneurons)” value (rat motoneurons; concentration 3 μM) is reported as 0.4.
With `CC(C)CCCC(C)C1CCC2C3CCC(=NOCC(=O)O)C(C)(CCCO)C3CCC12C` (stereo not shown) [Compound 7, 3,5-seco-4-nor-cholestan-5-one carboxymethyl-oxime-3-ol] the “Ratio (survival rate of the motoneurons)” value (rat motoneurons; concentration 3 μM) was 0.4.
In the case of `CC(C)CCCC(C)C1CCC2C3CCC(=NO)C(C)(CCC(=O)O)C3CCC12C` (stereo not shown) [Compound 8, 3,5-seco-4-nor-cholestan-5-one oxime-3-oic acid], the “Ratio (survival rate of the motoneurons)” value (rat motoneurons; concentration 3 μM) is reported as 0.4.
For `CC(C)CCCC(C)C1CCC2C3CCC(O)C(C)(CCCO)C3CCC12C` (stereo not shown) [Compound 9, 3,5-seco-4-nor-cholestane-3,5-diol], the “Ratio (survival rate of the motoneurons)” value (rat motoneurons; concentration 3 μM) was 0.4.
For `CC(C)CCCC(C)C1CCC2C3CCC(=O)C(C)(CCCO)C3CCC12C` (stereo not shown) [Compound 10, 3,5-seco-4-nor-cholestan-5-one-3-ol], the “Ratio (survival rate of the motoneurons)” value (rat motoneurons; concentration 3 μM) was 0.6.
With `CC(C)CCC[C@@H](C)[C@H]1CC[C@H]2[C@@H]3CC/C(=N\O)[C@](C)(CCCO)[C@H]3CC[C@]12C` [Compound 11, 3,5-seco-4-nor-cholestan-5-one oxime-3-ol] the “Ratio (survival rate of the motoneurons)” value (rat motoneurons; concentration 3 μM) was 0.8, the “increase” value ([1]; dose between 3 and 30 mg/kg, as compared with non-sectioned nerve) was “up to 40%” and the toxicity [2] was “did not show any significant toxicity”.
For `CC(C)CCCC(C)C1CCC2C3CCC(=NO)C(C)(CCC=NO)C3CCC12C` (stereo not shown) [Compound 12, 3,5-seco-4-nor-cholestan-5-one oxime-3-one oxime], the “Ratio (survival rate of the motoneurons)” value (rat motoneurons; concentration 3 μM) was 0.7.
In the case of `CC(C)CCCC(C)C1CCC2C3CCC(=O)C(C)(CCC(=O)O)C3CCC12C` (stereo not shown) [Compound 14, 3,5-seco-4-nor-cholestan-5-one-3-oic acid], the “Ratio (survival rate of the motoneurons)” value (rat motoneurons; concentration 10 μM) is reported as 0.4.
